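Briefly, cells in 96-well plates were exposed to five compound concentrations for 48 h, and endpoints were estimated by linear interpolation. GI50 marks 50% less growth. TGI: concentration producing complete growth inhibition.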

Common to all, as to test: NCI tumour cell line growth inhibition, 48 h
In assay [1] the test system is SW-620 colon.
Assay [2] concerns SF-295 CNS.
Assay [3] concerns U251 CNS.
Assay [4] relates to HOP-92 NSCLC.
Assay [5] has as its system K-562 leukemia.
The test system of assay [6] is LOX IMVI melanoma.
Assay [7] relates to SK-OV-3 ovarian.
For assay [8], the system named is HOP-62 NSCLC.
The test system of assay [9] is NCI-H226 lung.

Take `O=C1c2ccccc2C2(O)NC(=S)N(c3ccccc3)C12O` (stereo unspecified): the TGI in assay [1], in assay [2], in [3], in assay [4], in assay [5] and in assay [6] was more than 100 µM in each case. In assay [7], the TGI is more than 100 µM.

With `Cc1ccc(NC(=O)CC(=O)n2nc(-c3ccccc3)c(N=Nc3ccccc3Cl)c2-c2ccccc2)cc1`, the TGI was more than 100 µM in [1]; more than 100 µM in assay [2]; more than 100 µM in [3]; 63 µM in assay [4]; more than 100 µM in [8]; more than 100 µM in assay [5]. Further, the TGI in assay [6] was more than 100 µM; in assay [7] it was 60.5 µM.

Regarding `C=CCN(CC=C)C(=O)c1cc(C)nc2c1c(=O)n(-c1ccccc1)c(=O)n2CC(O)CN1CCN(c2ncccn2)CC1` (stereo unspecified), the GI50 was more than 100 µM in assay [1]; more than 100 µM in [2]; more than 100 µM in assay [3]; more than 100 µM in assay [4]; 21.1 µM in [8]; more than 100 µM in assay [9]. The GI50 in assay [5], in assay [6] and in assay [7] was more than 100 µM each time. Also, the TGI in assay [1], in [2], in assay [3], in assay [4], in [8] and in [9] was more than 100 µM each time. In addition, the TGI in assay [5], in [6] and in assay [7] was more than 100 µM in each case.

As to `Cc1cccc(Cl)c1NC(=O)/C=C/c1ccccc1`, the TGI in assay [1], in [2], in [3], in [4], in [8] and in assay [9] was more than 100 µM throughout. For the same compound, the TGI in assay [5], in assay [6] and in [7] was more than 100 µM in each case.

With `COC(=O)C(=O)C(C#N)c1ccc(CC#N)cc1` (stereo unspecified), the TGI in assay [1], in assay [2], in assay [3], in assay [4], in [9] and in assay [5] was more than 100 µM each time. Also, the TGI in [6] and in assay [7] was more than 100 µM each time.

As to `CC[O-].CC[O-].O=C1C(c2ccccc2)=C([O-])c2ccccc21.O=C1C(c2ccccc2)=C([O-])c2ccccc21.[Ti+4]`, the GI50 in assay [1], in assay [2], in assay [3], in assay [4], in [8] and in assay [9] was more than 100 µM in each case. For the same compound, the GI50 in assay [6] and in assay [7] was more than 100 µM throughout. Besides, the TGI in [1], in assay [2], in assay [3], in [4], in [8] and in assay [9] was more than 100 µM throughout. Also, the TGI in [6] and in [7] was more than 100 µM in each case.

As to `COC(=O)C12CC3CC(C1)CC(C(=O)OC)(C3)C2`, the TGI in [1], in assay [2], in [3], in [4], in [8] and in assay [6] was more than 100 µM each time. Besides, the TGI in [7] is more than 100 µM.

For `O=C([CH-]C(=O)c1ccccc1)c1ccccc1.O=C([CH-]C(=O)c1ccccc1)c1ccccc1.O=C([CH-]C(=O)c1ccccc1)c1ccccc1.[OH3+].[Y+3]`, the GI50 in assay [1] is 5.14 µM; in assay [2], 3.99 µM; in assay [3], 2.93 µM; in assay [4] it was 10 µM; in assay [8], 4.5 µM; in assay [5], 3.6 µM. The figures for the GI50 in assay [6] and in assay [7] were 3.74 µM and 11.2 µM, respectively. Also, the TGI in [1] was 22.8 µM; in assay [2], 19.1 µM; in assay [3], 24.2 µM; in [4] it was 25.3 µM; in assay [8], 22.5 µM; in assay [5], 17.8 µM. Besides, the TGI in assay [6] is 17 µM; in [7], 40 µM.

In the case of `O=C(O)CC12C3C4C5C3C1C5C42` (stereo unspecified), the TGI in [1], in [2], in [3], in [8], in assay [5] and in [6] was more than 100 µM each time. Moreover, the TGI in assay [7] was more than 100 µM.

(Values after PubChem BioAssay (NCI).)
